From patent US10981888B2, “Preparation method for tricyclic compounds” (BAYER CROPSCIENCE AKTIENGESELLSCHAFT, priority 2016, dated 2021)
Where two headings read alike, the source gives them in different places.

Test: determination of log P values by HPLC on a reversed-phase column (C18), EEC Directive 79/831 Annex V.A8
Type: physicochemical
Method: ^a) Note regarding the determination of the log P values and mass detection: The determination of the given log P values was carried out in accordance with EEC Directive 79/831 Annex V.A8 by HPLC (High Performance Liquid Chromatography) on a reversed-phase column (C18). […] Mass detection is via an Agilent MSD system. […] Mass detection is via an Agilent MSD system. The mass stated is the peak of the molecular ion+hydrogen [M+H]^+ (molecular ion=sum of the masses of the most abundant natural isotopes of which the molecule consists). ^c) GC/MS (gas chromatography/mass spectrometry) on dimethylsilicone phase. 10 m DB-1, ID=0.18 mm, film thickness=0.4 μm; injector: 250° C., carrier gas flow rate: […] helium; detector: MSD: 280° C., FID: 320° C.; oven temperature: 50° C. (1 minute), 50° C.-320° C. ([…], 40° C./min), 320° C. (6.75 minutes); Kovacs Indices calibrated with alkane mixture.

[1] = reversed-phase C18 HPLC column (Zorbax Eclipse Plus C18); HPLC-MS method a): Zorbax Eclipse Plus C18, acetonitrile (0.1% formic acid) / water (0.09% formic acid), gradient 10% to 95% acetonitrile, 55° C., read-out: log P

chromatographic logP [1]	chromatographic logP	Structure (SMILES)
4.36		CN(C(=O)c1cc(-c2cnn(-c3c(Cl)cc(C(F)(C(F)(F)F)C(F)(F)F)cc3Cl)c2)cnc1Cl)C1CC1 [2-Chloro-N-cyclopropyl-5-{1-[2,6-dichloro-4-(1,1,1,2,3,3,3-heptafluoropropan-2-yl)phenyl]-1H-pyrazol-4-yl}-N-methylnicotinamide]
4.31		CN(C(=O)c1cc(-c2cnn(-c3c(Cl)cc(C(F)(C(F)(F)F)C(F)(F)F)cc3Cl)c2)cnc1Cl)C1(C#N)CC1 [2-chloro-N-(1-cyanocyclopropyl)-5-{1-[2,6-dichloro-4-(1,1,1,2,3,3,3-heptafluoropropan-2-yl)phenyl]-1H-pyrazol-4-yl}-N-methylnicotinamide]
4.28		CN(C(=O)c1cc(-c2cnn(-c3c(Br)cc(C(F)(C(F)(F)F)C(F)(F)F)cc3C(F)(F)F)c2)cnc1Cl)C1CC1 [5-{1-[2-bromo-4-(1,1,1,2,3,3,3-heptafluoropropan-2-yl)-6-(trifluoromethyl)phenyl]-1H-pyrazol-4-yl}-2-chloro-N-cyclopropyl-N-methylnicotinamide]
4.56		CN(C(=O)c1cc(-c2cnn(-c3c(Cl)cc(C(F)(C(F)(F)F)C(F)(F)F)cc3OC(F)(F)F)c2)cnc1Cl)C1CC1 [2-Chloro-5-{1-[2-chloro-4-(1,1,1,2,3,3,3-heptafluoropropan-2-yl)-6-(trifluoromethoxy)phenyl]-1H-pyrazol-4-yl}-N-cyclopropyl-N-methylnicotinamide]
5.22		FC(F)(F)c1cc(C(F)(C(F)(F)F)C(F)(F)F)cc(Br)c1-n1cc(I)cn1 [1-[2-bromo-4-(1,1,1,2,3,3,3-heptafluoropropan-2-yl)-6-(trifluoromethyl)phenyl]-4-iodo-1H-pyrazole]
4.42		FC(F)(F)c1cc(C(F)(C(F)(F)F)C(F)(F)F)cc(Br)c1-n1cccn1 [1-[2-bromo-4-(1,1,1,2,3,3,3-heptafluoropropan-2-yl)-6-(trifluoromethyl)phenyl]-1H-pyrazole]
4.22		FC(F)(F)C(F)(c1cc(Cl)c(-n2cccn2)c(Cl)c1)C(F)(F)F [1-[2,6-dichloro-4-(1,1,1,2,3,3,3-heptafluoropropan-2-yl)phenyl]-1H-pyrazole]
4.82		FC(F)Oc1cc(C(F)(C(F)(F)F)C(F)(F)F)cc(Cl)c1-n1cc(I)cn1 [1-[2-chloro-6-(difluoromethoxy)-4-(1,1,1,2,3,3,3-heptafluoropropan-2-yl)phenyl]-4-iodo-1H-pyrazole]
3.87		Cc1cc(C(F)(C(F)(F)F)C(F)(F)F)cc(C)c1-n1cc(-c2cnc(Cl)c(C(=O)NC3(C#N)CC3)c2)cn1 [2-Chloro-N-(1-cyanocyclopropyl)-5-{1-[4-(1,1,1,2,3,3,3-heptafluoropropan-2-yl)-2,6-dimethylphenyl]-1H-pyrazol-4-yl}nicotinamide]
4.28		O=C(NC1CC1)c1cc(-c2cnn(-c3c(Cl)cc(C(F)(C(F)(F)F)C(F)(F)F)cc3OC(F)(F)F)c2)cnc1Cl [2-chloro-5-{1-[2-chloro-4-(1,1,1,2,3,3,3-heptafluoropropan-2-yl)-6-(trifluoromethoxy)phenyl]-1H-pyrazol-4-yl}-N-cyclopropylnicotinamide]
3.81		N#CC1(NC(=O)c2cc(-c3cnn(-c4c(Cl)cc(C(F)(C(F)(F)F)C(F)(F)F)cc4Cl)c3)cnc2Cl)CC1 [2-Chloro-N-(1-cyanocyclopropyl)-5-{1-[2,6-dichloro-4-(1,1,1,2,3,3,3-heptafluoropropan-2-yl)phenyl]-1H-pyrazol-4-yl}nicotinamide]
4.3		Cc1cc(C(F)(C(F)(F)F)C(F)(F)F)cc(C)c1-n1cccn1 [1-[4-(1,1,1,2,3,3,3-heptafluoropropan-2-yl)-2,6-dimethylphenyl]-1H-pyrazole]
5.19		FC(F)(F)c1cc(C(F)(C(F)(F)F)C(F)(F)F)cc(Cl)c1-n1cc(I)cn1 [1-[2-chloro-4-(1,1,1,2,3,3,3-heptafluoropropan-2-yl)-6-(trifluoromethyl)phenyl]-4-iodo-1H-pyrazole]
5.17		FC(F)(F)C(F)(c1cc(Cl)c(-n2cc(I)cn2)c(Cl)c1)C(F)(F)F [1-[2,6-dichloro-4-(1,1,1,2,3,3,3-heptafluoropropan-2-yl)phenyl]-4-iodo-1H-pyrazole]
5.07		FC(F)(F)C(F)(c1cc(Cl)c(-n2cc(Br)cn2)c(Cl)c1)C(F)(F)F [4-bromo-1-[2,6-dichloro-4-(1,1,1,2,3,3,3-heptafluoropropan-2-yl)phenyl]-1H-pyrazole]
4.46		CN(C(=O)c1cc(-c2cnn(-c3c(Cl)cc(C(F)(C(F)(F)F)C(F)(F)F)cc3C(F)(F)F)c2)cnc1Cl)C1CC1 [2-Chloro-5-{1-[2-chloro-4-(1,1,1,2,3,3,3-heptafluoropropan-2-yl)-6-(trifluoromethyl)phenyl]-1H-pyrazol-4-yl}-N-cyclopropyl-N-methylnicotinamide]
4.25		O=C(NC1CC1)c1cc(-c2cnn(-c3c(Br)cc(C(F)(C(F)(F)F)C(F)(F)F)cc3OC(F)(F)F)c2)cnc1Cl [5-{1-[2-Bromo-4-(1,1,1,2,3,3,3-heptafluoropropan-2-yl)-6-(trifluoromethoxy)phenyl]-1H-pyrazol-4-yl}-2-chloro-N-cyclopropylnicotinamide]
4.4		Cc1cc(C(F)(C(F)(F)F)C(F)(F)F)cc(C(F)(F)F)c1-n1cccn1 [1-[4-(1,1,1,2,3,3,3-heptafluoropropan-2-yl)-2-methyl-6-(trifluoromethyl)phenyl]-1H-pyrazole]
4.04		FC(F)Oc1cc(C(F)(C(F)(F)F)C(F)(F)F)cc(Cl)c1-n1cccn1 [1-[2-chloro-6-(difluoromethoxy)-4-(1,1,1,2,3,3,3-heptafluoropropan-2-yl)phenyl]-1H-pyrazole]
	0.9	CC1(C)OB(c2cnc(Cl)c(C(=O)NC3CC3)c2)OC1(C)C [2-chloro-N-cyclopropyl-5-(4,4,5,5-tetramethyl-1,3,2-dioxaborolan-2-yl)nicotinamide]
4		O=C(NC1CC1)c1cc(-c2cnn(-c3c(Cl)cc(C(F)(C(F)(F)F)C(F)(F)F)cc3C(F)(F)F)c2)cnc1Cl [2-Chloro-5-{1-[2-chloro-4-(1,1,1,2,3,3,3-heptafluoropropan-2-yl)-6-(trifluoromethyl)phenyl]-1H-pyrazol-4-yl}-N-cyclopropylnicotinamide]
4.38		FC(F)(F)c1cc(C(F)(C(F)(F)F)C(F)(F)F)cc(Cl)c1-n1cccn1 [1-[2-chloro-4-(1,1,1,2,3,3,3-heptafluoropropan-2-yl)-6-(trifluoromethyl)phenyl]-1H-pyrazole]
5.2		Cc1cc(C(F)(C(F)(F)F)C(F)(F)F)cc(C)c1-n1cc(I)cn1 [1-[4-(1,1,1,2,3,3,3-heptafluoropropan-2-yl)-2,6-dimethylphenyl]-4-iodo-1H-pyrazole]
